# Measured values taken from the supplement of paper PMC10307832.
# Legend:
# Experiment in all cases: relative viability (nuclei count vs DMSO), 5 days (fraction); higher = more cells survive
# [1] = compound: CC[C@H](Nc1ncnc2[nH]cnc12)c1nc2cccc(F)c2c(=O)n1-c1ccccc1 [Idelalisib] + C[C@]1(O)C[C@@H](c2nc(-c3ccc4ccc(-c5ccccc5)nc4c3)c3c(N)nccn32)C1 [Linsitinib] (partner 1 µM)
# How it was run: (§1)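 Lung cancer cell lines, seeded in 1536-well plates, were treated the following day by pin tool with a single drug or with five library-drug doses (not always all listed) in √10 steps on top of a fixed anchor-drug dose. Cells were fixed and nuclei stained in one step after 5 days, and nuclei were counted. Relative viability is the nuclei count for treated wells divided by that for vehicle wells, reported as medians of duplicate plates.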
# [2] = compound: Nc1nc2[nH]cc(CCc3ccc(C(=O)N[C@@H](CCC(=O)O)C(=O)O)cc3)c2c(=O)[nH]1 [Pemetrexed] + CCNC(=O)c1noc(-c2cc(C(C)C)c(O)cc2O)c1-c1ccc(CN2CCOCC2)cc1 [Luminespib] (partner 0.01 µM)
# How it was run: as §1
# [3] = compound: Nc1nc2[nH]cc(CCc3ccc(C(=O)N[C@@H](CCC(=O)O)C(=O)O)cc3)c2c(=O)[nH]1 [Pemetrexed] + COc1cc2c(Oc3ccc(NC(=O)C4(C(=O)Nc5ccc(F)cc5)CC4)cc3F)ccnc2cc1OCCCN1CCOCC1 [Foretinib] (partner 0.25 µM)
# How it was run: as §1
# [4] = compound: Nc1nc2[nH]cc(CCc3ccc(C(=O)N[C@@H](CCC(=O)O)C(=O)O)cc3)c2c(=O)[nH]1 [Pemetrexed] + N=C(N)NC(=N)NCCc1ccccc1 [Phenformin] (partner 250 µM)
# How it was run: as §1
Cell Line,relative viability ([1]; first compound 0.04 µM),relative viability ([1]; first compound 0.1265 µM),relative viability ([1]; first compound 1.265 µM),relative viability ([1]; first compound 4 µM),relative viability ([2]; first compound 0.002 µM),relative viability ([2]; first compound 0.006325 µM),relative viability ([2]; first compound 0.02 µM),relative viability ([2]; first compound 0.06325 µM),relative viability ([2]; first compound 0.2 µM),relative viability ([3]; first compound 0.002 µM),relative viability ([3]; first compound 0.006325 µM),relative viability ([3]; first compound 0.02 µM),relative viability ([3]; first compound 0.06325 µM),relative viability ([3]; first compound 0.2 µM),relative viability ([4]; first compound 0.002 µM),relative viability ([4]; first compound 0.006325 µM),relative viability ([4]; first compound 0.02 µM),relative viability ([4]; first compound 0.06325 µM),relative viability ([4]; first compound 0.2 µM),relative viability ([1]; first compound 0.4 µM)
NCI-H441,0.43,0.437,0.438,0.41,0.35,0.328,0.33,0.393,0.328,1.02,0.926,1.08,0.741,0.438,0.594,0.793,0.515,0.555,0.393,
NCI-H520,0.98,0.935,0.894,0.648,0.215,0.234,0.223,0.261,0.2,0.787,0.749,0.848,0.693,0.738,0.567,0.756,0.756,0.65,0.501,0.856
CAL-12T,0.823,0.906,0.822,0.584,0.307,0.352,0.38,0.363,0.557,1.04,1.07,1.24,1.17,1.04,0.502,0.477,0.612,0.58,0.608,0.733
HCC-827,0.958,0.961,0.885,0.965,0.541,0.633,0.856,0.724,0.382,0.903,1.03,1.03,1.01,0.916,0.366,0.417,0.436,0.4,0.37,0.96
LC-2-ad,0.966,0.848,0.75,0.719,1.09,0.989,0.709,0.313,0.303,0.818,0.946,0.526,0.296,0.284,0.518,0.567,0.492,0.335,0.374,0.805
NCI-H2170,,,,,0.684,0.861,0.709,0.749,0.583,0.918,1.02,0.999,1,1.02,0.449,0.443,0.424,0.42,0.405,
SW 1573,0.781,0.792,0.625,0.558,0.285,0.443,0.249,0.125,0.176,0.909,0.808,0.951,0.979,0.855,0.401,0.348,0.447,0.353,0.388,0.728
SK-MES-1,1.02,0.984,0.855,0.703,0.649,0.56,0.965,0.688,0.773,0.883,0.83,1.04,0.907,0.868,0.647,0.638,0.705,0.642,0.614,0.934
NCI-H1793,1.02,0.852,0.797,0.582,0.397,0.201,0.152,0.118,0.237,0.844,0.575,0.733,0.465,0.749,0.436,0.361,0.42,0.349,0.405,0.505
NCI-H1299,1.03,1.07,0.959,0.928,,,,,,1.08,1.15,1.12,1.09,0.595,,,,,,0.978
LCLC-97TM1,0.209,0.184,0.175,0.156,0.906,0.74,0.81,0.761,0.65,1.01,0.81,0.886,0.872,0.886,0.432,0.392,0.466,0.44,0.396,
NCI-H1915,1.19,1.15,1.17,1.07,0.818,0.857,0.84,0.836,0.781,1.04,1.05,1.11,1.07,1.11,0.358,0.39,0.373,0.357,0.381,1.04
NCI-H661,0.588,0.551,0.389,0.458,0.958,0.882,0.934,0.884,0.85,1.03,0.987,1.01,0.985,0.974,0.288,0.28,0.286,0.276,0.273,0.373
NCI-H2405,1.08,0.851,0.736,0.69,0.703,0.775,0.77,0.818,0.789,1.06,1.03,1.09,1.03,1.08,0.37,0.362,0.423,0.432,0.392,0.733
NCI-H2347,0.931,0.884,1.14,0.514,0.0507,0.281,0.551,0.55,0.381,0.841,1.06,1.19,0.739,0.558,0.203,0.369,0.484,0.412,0.387,0.857
NCI-H1651,0.982,0.903,0.923,0.714,0.845,0.792,0.965,0.983,0.732,0.673,0.772,0.826,0.754,0.737,0.299,0.354,0.377,0.285,0.368,0.789
